The values that follow come from ChEMBL document CHEMBL1126330, “Synthesis of RP-67,580, a new potent nonpeptide substance P antagonist” (Bioorg Med Chem Lett, 1992).

Each structure is given as a SMILES string.

Test [1] has as its target Substance-P receptor (Cavia porcellus, UniProt P30547). The experiment in a line: Tested for inhibition of contractile effects of Tachykinin receptor 1 in guinea pig ileum preparation. The class given is functional, tissue-based. The note with it: read-out: pA2 (converted).
Test [2] concerns the target Substance-P receptor (Rattus norvegicus, UniProt P14600). Briefly: Tested for binding affinity towards Tachykinin receptor 1 by using [3H]SP binding assay in rat brain membranes. Format: cell membranes.

Substance-P receptor (Rattus norvegicus, UniProt P14600), sequence (P14600 whole entry): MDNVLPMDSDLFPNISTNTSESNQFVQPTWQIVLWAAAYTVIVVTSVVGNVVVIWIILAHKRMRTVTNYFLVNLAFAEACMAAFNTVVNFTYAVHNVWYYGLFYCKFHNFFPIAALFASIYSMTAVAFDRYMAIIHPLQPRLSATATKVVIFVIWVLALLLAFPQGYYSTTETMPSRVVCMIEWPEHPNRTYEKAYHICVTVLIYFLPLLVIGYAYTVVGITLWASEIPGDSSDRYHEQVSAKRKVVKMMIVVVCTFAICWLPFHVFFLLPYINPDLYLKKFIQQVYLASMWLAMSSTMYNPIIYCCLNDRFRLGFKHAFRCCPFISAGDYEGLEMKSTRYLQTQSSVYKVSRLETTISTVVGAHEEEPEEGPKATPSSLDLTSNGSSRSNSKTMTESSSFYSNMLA
Substance-P receptor (Cavia porcellus, UniProt P30547), sequence (P30547 whole entry): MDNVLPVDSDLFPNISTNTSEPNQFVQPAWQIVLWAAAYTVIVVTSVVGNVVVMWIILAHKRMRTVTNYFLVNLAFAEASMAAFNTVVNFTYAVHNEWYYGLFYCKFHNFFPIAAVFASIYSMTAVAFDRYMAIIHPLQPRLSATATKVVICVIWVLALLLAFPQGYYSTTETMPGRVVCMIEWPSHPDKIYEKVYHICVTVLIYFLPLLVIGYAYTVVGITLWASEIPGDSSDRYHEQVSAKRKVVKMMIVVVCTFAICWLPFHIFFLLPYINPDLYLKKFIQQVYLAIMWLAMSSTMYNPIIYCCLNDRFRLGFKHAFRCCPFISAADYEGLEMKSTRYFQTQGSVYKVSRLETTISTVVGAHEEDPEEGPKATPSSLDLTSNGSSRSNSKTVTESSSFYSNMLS

On to `COc1ccccc1CC(=N)N1C[C@@H]2C(=O)CCC(c3ccccc3)(c3ccccc3)[C@@H]2C1`, for which, in test [1], the Kb is 63.1 nM. This compound displayed a Ki in test [2] of 4.16 nM.

A word on the Ki: it is a dissociation constant, usually derived from enzyme kinetics or from competition with a known ligand. A high value points to a looser hold on the target.
